Where two headings read alike, the source gives them in different places.
Tests used:
HeLa = experiment: In vitro cytotoxicity, MTT assay; format: cell-based, human; details: for IC50: HeLa; for Toxicity toward cancer cells compared to that toward CCD-19Lu cells, HeLa: IC50 of CCD-19Lu cells / IC50 of HeLa; for Toxicity toward cancer cells compared to that toward MIHA cells, HeLa: IC50 of MIHA cells / IC50 of HeLa; for Toxicity toward cancer cells compared to that toward NCM460 cells, HeLa: IC50 of NCM460 cells / IC50 of HeLa
Experimental: (§1) In vitro cytotoxicity assays. HeLa, NCI-H460, HCT116, A2780, A2780cis and
(§2) cells), respectively, were seeded in 96-well plates for 24 h. The cells were then treated with a serial concentration of gold(III) complexes and incubated at 37 °C under a 5% CO2 atmosphere for 72 h. For nanostructures of 1, 2 and NC1, they were dissolved in
(§3) cisplatin were dissolved in culture medium-DMSO solution mixture (99:1, v/v).
(§4) After incubation for 72 h, MTT in PBS solution (5 mg/mL, 10 μL) was added to each well. The plates were incubated at 37 °C under a 5% CO2 atmosphere for another 4 h, and the cells were lysed by the addition of SDS solution (10%, w/w) with 0.01 M HCl (100 μL). After incubation in dark at 37 °C overnight, the cell viability after treatment was determined by a microtitre plate reader monitoring at the absorbance at 590 nm,

A2780adr = experiment: In vitro cytotoxicity, MTT assay; format: cell-based, human; details: for IC50: A2780adr; for Resistance found in A2780adr: IC50 of A2780adr cells / IC50 of A2780 cells; for Toxicity toward cancer cells compared to that toward CCD-19Lu cells, A2780adr: IC50 of CCD-19Lu cells / IC50 of A2780adr; for Toxicity toward cancer cells compared to that toward MIHA cells, A2780adr: IC50 of MIHA cells / IC50 of A2780adr; for Toxicity toward cancer cells compared to that toward NCM460 cells, A2780adr: IC50 of NCM460 cells / IC50 of A2780adr
Experimental: as §1, §2, §3, §4

NCI-H460 = experiment: In vitro cytotoxicity, MTT assay; format: cell-based, human; details: for Toxicity toward cancer cells compared to that toward CCD-19Lu cells, NCI-H460: IC50 of CCD-19Lu cells / IC50 of NCI-H460; for Toxicity toward cancer cells compared to that toward MIHA cells, NCI-H460: IC50 of MIHA cells / IC50 of NCI-H460; for Toxicity toward cancer cells compared to that toward NCM460 cells, NCI-H460: IC50 of NCM460 cells / IC50 of NCI-H460; for IC50: NCI-H460, MTT assay, 72 h incubation
Experimental: as §1, §2, §3, §4

A2780cis = experiment: In vitro cytotoxicity, MTT assay; format: cell-based, human; details: for IC50: A2780cis, MTT assay, 72 h incubation; for Resistance found in A2780cis: IC50 of A2780cis cells / IC50 of A2780 cells; for Toxicity toward cancer cells compared to that toward CCD-19Lu cells, A2780cis: IC50 of CCD-19Lu cells / IC50 of A2780cis; for Toxicity toward cancer cells compared to that toward MIHA cells, A2780cis: IC50 of MIHA cells / IC50 of A2780cis; for Toxicity toward cancer cells compared to that toward NCM460 cells, A2780cis: IC50 of NCM460 cells / IC50 of A2780cis
Experimental: as §1, §2, §3, §4

CCD-19Lu = experiment: In vitro cytotoxicity, MTT assay; format: cell-based, human; details: 72 h incubation
Experimental: as §1, §2, §3, §4

HCT116 cells = experiment: Hydrolysis in live cells, UPLC-QTOF-MS of cell lysates; format: in vitro ADME, human; details: 2 μM, 24 h
Experimental: Hydrolysis of the gold(III) complexes in live cells was examined by ultra-performance liquid chromatography coupled quadrupole-time-of-flight mass spectrometry (UPLC-QTOF-MS). Colon cancer cells (HCT116) were treated with 1, 2 and 3 (2 μM) for 24 h, harvested and lysed in an acetonitrile–water solution mixture (3 : 1, v/v) prior to UPLC-QTOF-MS analysis. […] Therefore, the peak is attributable to the major metabolite of 1 formed in HCT116 cells. […] This should be attributable to the higher stability of the amide bond versus the ester bond in vitro. […]
which reflected the amount of blue formazan formed. IC50 values were then determined by CompuSyn S6 from three independent measurements.
Study on the release of hydrolyzed product from 1 and 2 in aqueous buffer solutions by ICP-MS. The nanostructures of gold(III) complex was dissolved in PBS solution (pH 7.4; 1 mg/mL) or sodium acetate buffer solution (pH 4.0; 1 mg/mL) and was dialyzed against 1 L of the buffer solution at 37 °C using semipermeable minidialysis tubes (molecular weight cut-off = 1,000 Da; GE Healthcare). At a predetermined time, an aliquot of solution was removed and dissolved in HNO3/HCl solution mixture (9:1, v/v; volume of aliquot: volume of acid mixture = 1:3). The solution mixture was heated at 65 °C with shaking overnight, and the gold content was determined by ICP-MS from three independent aliquots.
Study on the hydrolysis of 1 and 2 in aqueous buffer solutions by 1H NMR. […]
The flow rate was 0.4 mL/min and the injection volume was 2 µL. The UPLC-QTOF-MS chromatograms of 1, 3, 4 and solvent control in acetonitrile were also recorded for the interpretation of UPLC-QTOF-MS chromatograms of the cell lysate. […]
Au1a (2 µM; with 1 vol% DMSO). […] An aliquot of the cell suspension was subjected to Bio-rad protein assay with a microtitre plate reader at the absorbance at 595 nm, using bovine serum albumin as the protein standard. […] The solution mixture was heated at 65 °C with shaking overnight, and the gold content was determined by ICP-MS. […]

HCT116 = experiment: In vitro cytotoxicity, MTT assay; format: cell-based, human; details: for IC50: HCT116, MTT assay, 72 h incubation; for Toxicity toward cancer cells compared to that toward CCD-19Lu cells, HCT-116: IC50 of CCD-19Lu cells / IC50 of HCT-116; for Toxicity toward cancer cells compared to that toward MIHA cells, HCT-116: IC50 of MIHA cells / IC50 of HCT-116; for Toxicity toward cancer cells compared to that toward NCM460 cells, HCT-116: IC50 of NCM460 cells / IC50 of HCT-116
Experimental: as §1, §2, §3, §4

NCM460 = experiment: In vitro cytotoxicity, MTT assay; format: cell-based, human; details: 72 h incubation
Experimental: as §1, §2, §3, §4

A2780 = experiment: In vitro cytotoxicity, MTT assay; format: cell-based, human; details: for IC50: A2780, MTT assay, 72 h incubation; for Toxicity toward cancer cells compared to that toward CCD-19Lu cells, A2780: IC50 of CCD-19Lu cells / IC50 of A2780; for Toxicity toward cancer cells compared to that toward MIHA cells, A2780: IC50 of MIHA cells / IC50 of A2780; for Toxicity toward cancer cells compared to that toward NCM460 cells, A2780: IC50 of NCM460 cells / IC50 of A2780
Experimental: as §1, §2, §3, §4

MIHA = experiment: In vitro cytotoxicity, MTT assay; format: cell-based
Experimental: as §1, §2, §3, §4

[1] = 72 h, read-out: Total dose at IC50
[2] = MTT assay, 72 h incubation, read-out: IC50

| Compound | IC50 (HeLa; [2]) [µM] | Toxicity toward cancer cells compared to that toward MIHA cells, HeLa (HeLa) | Toxicity toward cancer cells compared to that toward NCM460 cells, HeLa (HeLa) | IC50 (A2780adr; [2]) [µM] | Resistance found in A2780adr (A2780adr) | Toxicity toward cancer cells compared to that toward MIHA cells, A2780adr (A2780adr) | Toxicity toward cancer cells compared to that toward NCM460 cells, A2780adr (A2780adr) | Toxicity toward cancer cells compared to that toward MIHA cells, NCI-H460 (NCI-H460) | Toxicity toward cancer cells compared to that toward NCM460 cells, NCI-H460 (NCI-H460) | IC50 (NCI-H460) [µM] | IC50 (A2780cis) [µM] | Resistance found in A2780cis (A2780cis) | Toxicity toward cancer cells compared to that toward NCM460 cells, A2780cis (A2780cis) | IC50 (CCD-19Lu) [µM] | IC50 (HCT116) [µM] | Toxicity toward cancer cells compared to that toward MIHA cells, HCT-116 (HCT116) | Toxicity toward cancer cells compared to that toward NCM460 cells, HCT-116 (HCT116) | IC50 (NCM460) [µM] | IC50 (A2780) [µM] | Toxicity toward cancer cells compared to that toward MIHA cells, A2780 (A2780) | other results |
| --- | --- | --- | --- | --- | --- | --- | --- | --- | --- | --- | --- | --- | --- | --- | --- | --- | --- | --- | --- | --- | --- |
| [Au(TPP–COO–PEG5000–OCH3)]Cl [Compound 1] | 1.91 ± 0.48 | 7.6 | 8.6 | 1.51 ± 0.4 | 2.94 | 9.1 | 10.9 | 17.1 | 19.3 | 0.85 ± 0.07 | 0.64 ± 0.03 | 1.27 | 25.6 | 15.2 ± 1.93 | 0.39 ± 0.03 | 37.2 | 42.1 | 16.4 ± 2.45 | 0.51 ± 0.09 | 28.4 | IC50 (HeLa; 72 h, read-out: 1 at IC50): 1.91 µM; IC50 (HeLa; [1]): 1.91 µM; Toxicity toward cancer cells compared to that toward CCD-19Lu cells, HeLa (HeLa): 8.0; IC50 (A2780adr; 72 h, read-out: 1 at IC50): 1.51 µM; IC50 (A2780adr; [1]): 1.51 µM; Toxicity toward cancer cells compared to that toward CCD-19Lu cells, A2780adr (A2780adr): 10.1; Toxicity toward cancer cells compared to that toward CCD-19Lu cells, NCI-H460 (NCI-H460): 17.9; Toxicity toward cancer cells compared to that toward CCD-19Lu cells, A2780cis (A2780cis): 23.8; Toxicity toward cancer cells compared to that toward MIHA cells, A2780cis (A2780cis): 22.7; hydrolysis / release of [Au(TPP–COOH)]+ in cells (HCT116 cells): hydrolysis of the ester bond of 1 in HCT116 cells to form [Au(TPP–COOH)]^+; Toxicity toward cancer cells compared to that toward CCD-19Lu cells, HCT-116 (HCT116): 39.0; Toxicity toward cancer cells compared to that toward CCD-19Lu cells, A2780 (A2780): 29.8; Toxicity toward cancer cells compared to that toward NCM460 cells, A2780 (A2780): 32.2; IC50 (MIHA; 72 h, read-out: 1 at IC50): 14.5 µM; IC50 (MIHA; [1]): 14.5 µM; IC50 (MIHA; [2]): 14.5 ± 2.55 µM |
| [Au(TPP–CONH–PEG5000–OCH3)]Cl [Compound 2] | 46.5 ± 4.4 | 2.5 | 1.5 | > 120 | > 9.09 | < 1.0 | < 0.6 | 4.7 | 2.9 | 24.7 ± 4.62 | 47.2 ± 8.62 | 3.57 | 1.5 | > 100 | 8.24 ± 0.22 | 14.0 | 8.6 | 71 ± 6.42 | 13.4 ± 0.18 | 8.6 | Toxicity toward cancer cells compared to that toward MIHA cells, A2780cis (A2780cis): 2.4; hydrolysis / release of [Au(TPP–COOH)]+ in cells (HCT116 cells): no release of [Au(TPP–COOH)]^+ can be found; Toxicity toward cancer cells compared to that toward NCM460 cells, A2780 (A2780): 5.3; IC50 (MIHA; [2]): 115 ± 17.1 µM |
| C1=Cc2nc1c(-c1ccccc1)c1ccc([n-]1)c(-c1ccccc1)c1nc(c(-c3ccccc3)c3ccc([n-]3)c2-c2ccccc2)C=C1.[Au+3].[Cl-] [Au1a, [Au(TPP)]Cl, reference compound] | 0.66 ± 0.04 | 0.6 | 0.1 | 1.13 ± 0.15 | 9.09 | 0.4 | 0.06 | 1.7 | 0.3 | 0.23 ± 0.01 | 0.18 ± 0.01 | 1.49 | 0.4 | 0.23 ± 0.04 | 0.09 ± 0.02 | 4.4 | 0.8 | 0.07 ± 0.01 | 0.12 ± 0.02 | 3.3 | Toxicity toward cancer cells compared to that toward CCD-19Lu cells, HeLa (HeLa): 0.3; Toxicity toward cancer cells compared to that toward CCD-19Lu cells, A2780adr (A2780adr): 0.2; Toxicity toward cancer cells compared to that toward CCD-19Lu cells, NCI-H460 (NCI-H460): 1.0; Toxicity toward cancer cells compared to that toward CCD-19Lu cells, A2780cis (A2780cis): 1.3; Toxicity toward cancer cells compared to that toward CCD-19Lu cells, HCT-116 (HCT116): 2.6; Toxicity toward cancer cells compared to that toward CCD-19Lu cells, A2780 (A2780): 1.9; Toxicity toward cancer cells compared to that toward NCM460 cells, A2780 (A2780): 0.6; IC50 (MIHA; [2]): 0.4 ± 0.07 µM |
